Measurements: patent publication US7951836B2, “Substituted phenyl methanone derivatives” (Hoffmann-La Roche Inc., priority 2006, dated 2011)
pIC50: −log10 of the molar value.

Target: T1, mGlyT-1b (Mus musculus, UniProt P28571)
T1 construct: host or cells: Flp-in-CHO
T1 sequence (P28571 1-651 isoform P28571-2): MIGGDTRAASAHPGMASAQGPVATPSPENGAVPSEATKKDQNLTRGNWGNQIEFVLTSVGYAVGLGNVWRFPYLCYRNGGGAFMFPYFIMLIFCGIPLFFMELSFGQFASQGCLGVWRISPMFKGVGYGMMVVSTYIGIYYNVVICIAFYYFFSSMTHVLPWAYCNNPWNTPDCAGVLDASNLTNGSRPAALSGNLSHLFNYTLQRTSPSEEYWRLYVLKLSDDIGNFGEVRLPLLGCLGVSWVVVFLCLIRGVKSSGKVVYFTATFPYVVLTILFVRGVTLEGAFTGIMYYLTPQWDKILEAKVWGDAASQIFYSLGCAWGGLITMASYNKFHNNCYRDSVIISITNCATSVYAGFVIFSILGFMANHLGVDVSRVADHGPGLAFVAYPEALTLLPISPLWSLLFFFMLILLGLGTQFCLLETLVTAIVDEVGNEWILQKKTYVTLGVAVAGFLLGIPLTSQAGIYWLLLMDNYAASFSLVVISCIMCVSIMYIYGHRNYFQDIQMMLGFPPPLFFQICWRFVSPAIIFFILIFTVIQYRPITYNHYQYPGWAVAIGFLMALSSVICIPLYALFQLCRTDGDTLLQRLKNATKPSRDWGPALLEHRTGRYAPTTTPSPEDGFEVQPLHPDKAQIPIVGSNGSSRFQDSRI
Experiment: Glycine uptake inhibition assay (mGlyT-1b)
Format: cell-based
Conditions: not given
Procedure: DMEM complete medium: Nutrient mixture F-12 (Gibco Life-technologies), fetal bovine serum (FBS) 5%, (Gibco life technologies), Penicillin/Streptomycin 1% (Gibco life technologies), Hygromycin 0.6 mg/ml (Gibco life technologies), Glutamine 1 mM Gibco life technologies) Uptake buffer (UB): 150 mM NaCl, 10 mM Hepes-Tris, pH 7.4, 1 mM CaCl2, 2.5 mM KCl, 2.5 mM MgSO4, 10 mM (+) D-glucose. Flp-inTM-CHO (Invitrogen Cat n° R758-07) cells stably transfected with mGlyT1b cDNA. Glycine Uptake Inhibition […]) On day 1 mammalian cells, (Flp-inTM-CHO), transfected with […] cDNA, were plated at the density of 40,000 cells/well in complete F-12 medium, without hygromycin in 96-well culture plates. On day 2, the medium was aspirated and the cells were washed twice with uptake buffer (UB). The cells were then incubated for 20 min at 22° C. with either (i) no potential competitor, (ii) 10 mM non-radioactive glycine, (iii) a concentration of a potential inhibitor. A range of concentrations of the potential inhibitor was used to generate data for calculating the concentration of inhibitor resulting in 50% of the effect (e.g. […] The plates were incubated with gentle shaking, and the reaction was stopped by aspiration of the mixture and washing (three times) with ice-cold UB. The cells were lysed with scintillation liquid, shaken 3 hours and the radioactivity in the cells was counted using a scintillation counter.

pIC50 | Structure (SMILES)
6.70 | C[C@H](Oc1ccc(S(C)(=O)=O)cc1C(=O)N1CCC(COc2ccc(Cl)cc2)C1)C(F)(F)F (mixture of isomers) [Example 29, rac-[3-(4-Chloro-phenoxymethyl)-pyrrolidin-1-yl]-[5-methanesulfonyl-2-((S)-2,2,2-trifluoro-1-methyl-ethoxy)-phenyl]-methanone]
6.68 | C[C@H](Oc1ccc(S(C)(=O)=O)cc1C(=O)N1CCC(COc2ccc(C#N)cc2)C1)C(F)(F)F (mixture of isomers) [Example 32, rac-4-{1-[5-Methanesulfonyl-2-((S)-2,2,2-trifluoro-1-methyl-ethoxy)-benzoyl]-pyrrolidin-3-ylmethoxy}-benzonitrile]

Same assay, conditions: [3H]-glycine uptake in Flp-in-CHO cells stably transfected with mGlyT1b cDNA; 20 min preincubation at 22° C.; read-out: IC50 (μM) at GlyT-1

Structure (SMILES) | IC50
C[C@H](Oc1ccc(S(C)(=O)=O)cc1C(=O)N1CCC(c2ccc(C(F)(F)F)cc2)C1)C(F)(F)F (mixture of isomers) [Example 2, rac-[5-Methanesulfonyl-2-((S)-2,2,2-trifluoro-1-methyl-ethoxy)-phenyl]-[3-(4-trifluoromethyl-phenyl)-pyrrolidin-1-yl]-methanone] | 0.22 µM
CS(=O)(=O)c1ccc(OCC(F)(F)C(F)(F)F)c(C(=O)N2CCC(Cc3ccc(C(F)(F)F)cc3)C2)c1 (racemic) [Example 13, rac-[5-Methanesulfonyl-2-(2,2,3,3,3-pentafluoro-propoxy)-phenyl]-[3-(4-trifluoromethyl-benzyl)-pyrrolidin-1-yl]-methanone] | 0.09 µM
CS(=O)(=O)c1ccc(OCC2CCC2)c(C(=O)N2CCC(Cc3ccc(C(F)(F)F)cc3)C2)c1 (racemic) [Example 15, rac-(2-Cyclobutylmethoxy-5-methanesulfonyl-phenyl)-[3-(4-trifluoromethyl-benzyl)-pyrrolidin-1-yl]-methanone] | 0.24 µM
C[C@H](Oc1ccc(S(C)(=O)=O)cc1C(=O)N1CCC(COc2ccc([N+](=O)[O-])cc2)C1)C(F)(F)F (mixture of isomers) [Example 33, rac-[5-Methanesulfonyl-2-((S)-2,2,2-trifluoro-1-methyl-ethoxy)-phenyl]-[3-(4-nitro-phenoxymethyl)-pyrrolidin-1-yl]-methanone] | 0.17 µM
C[C@H](Oc1ccc(S(C)(=O)=O)cc1C(=O)N1CCC(COc2ccc(OC(F)(F)F)cc2)C1)C(F)(F)F (mixture of isomers) [Example 35, rac-[5-Methanesulfonyl-2-((S)-2,2,2-trifluoro-1-methyl-ethoxy)-phenyl]-[3-(4-trifluoromethoxy-phenoxymethyl)-pyrrolidin-1-yl]-methanone] | 0.13 µM
C[C@H](Oc1ccc(S(C)(=O)=O)cc1C(=O)N1CCC(COc2ccc(Cl)c(Cl)c2)C1)C(F)(F)F (mixture of isomers) [Example 36, rac-[3-(3,4-Dichloro-phenoxymethyl)-pyrrolidin-1-yl]-[5-methanesulfonyl-2-((S)-2,2,2-trifluoro-1-methyl-ethoxy)-phenyl]-methanone] | 0.13 µM

More lines, now with the values ahead:

IC50 | Structure (SMILES)
0.11 µM | C[C@H](Oc1ccc(S(C)(=O)=O)cc1C(=O)N1CCC(Cc2ccc(C(F)(F)F)cc2)C1)C(F)(F)F (mixture of isomers) [Example 11, rac-[5-Methanesulfonyl-2-((S)-2,2,2-trifluoro-1-methyl-ethoxy)-phenyl]-[3-(4-trifluoromethyl-benzyl)-pyrrolidin-1-yl]-methanone]
0.5 µM | CS(=O)(=O)c1ccc(-c2ccc(F)cc2)c(C(=O)N2CCC(Cc3ccc(C(F)(F)F)cc3)C2)c1 (racemic) [Example 14, rac-(4′-Fluoro-4-methanesulfonyl-biphenyl-2-yl)-[3-(4-trifluoromethyl-benzyl)-pyrrolidin-1-yl]-methanone]
0.32 µM | CS(=O)(=O)c1ccc(OC2CCCC2)c(C(=O)N2CCC(Cc3ccc(C(F)(F)F)cc3)C2)c1 (racemic) [Example 16, rac-(2-Cyclopentyloxy-5-methanesulfonyl-phenyl)-[3-(4-trifluoromethyl-benzyl)-pyrrolidin-1-yl]-methanone]
0.27 µM | Cc1ccc(OCC2CCN(C(=O)c3cc(S(C)(=O)=O)ccc3O[C@@H](C)C(F)(F)F)C2)cc1 (mixture of isomers) [Example 30, rac-[5-Methanesulfonyl-2-((S)-2,2,2-trifluoro-1-methyl-ethoxy)-phenyl]-(3-p-tolyloxymethyl-pyrrolidin-1-yl)-methanone]
0.45 µM | C[C@H](Oc1ccc(S(C)(=O)=O)cc1C(=O)N1CCC(COc2ccc(-c3ccccc3)cc2)C1)C(F)(F)F (mixture of isomers) [Example 31, rac-[3-(Biphenyl-4-yloxymethyl)-pyrrolidin-1-yl]-[5-methanesulfonyl-2-((S)-2,2,2-trifluoro-1-methyl-ethoxy)-phenyl]-methanone]
0.17 µM | COc1cccc(OCC2CCN(C(=O)c3cc(S(C)(=O)=O)ccc3O[C@@H](C)C(F)(F)F)C2)c1 (mixture of isomers) [Example 37, rac-[5-Methanesulfonyl-2-((S)-2,2,2-trifluoro-1-methyl-ethoxy)-phenyl]-[3-(3-methoxy-phenoxymethyl)-pyrrolidin-1-yl]-methanone]
